# Results taken from PubChem BioAssay AID1259408 (Genetic Toxicology Data Bank (GENE-TOX), 2018).
# Active and inactive are the calls of the source. The rule behind the calls is not given here.
# System: GENE-TOX genotoxicity assays, various organisms and cells
# Assay: GENE-TOX mutagenicity studies
# Settings: for call: Assay Type: In vivo carcinogenicity studies, Assay Code: CCG+L
# [1] = Species/Cell Type: Nonhuman, Assay Type: Sister-chromatid exchange (SCE) in vitro, Assay Code: SC2+D, Dose Response: With dose response, Evaluation Type: Evaluation B (Post-1980)
# [2] = Species/Cell Type: Salmonella typhimurium (one or more of the five standard strains: TA98, TA100, TA1535, TA1537, and TA1538), Assay Type: Histidine reverse gene mutation, Ames assay, Assay Code: SAL+, Evaluation Type: Evaluation A (Pre-1980)
# [3] = Species/Cell Type: Salmonella typhimurium, Assay Type: Forward and reverse gene mutation, host-mediated assay, Assay Code: HMA+, Evaluation Type: Evaluation A (Pre-1980)
# [4] = Species/Cell Type: Human, Assay Type: Sister-chromatid exchange (SCE) in vitro, Assay Code: SC1T, Evaluation Type: Evaluation B (Post-1980)
# [5] = Species/Cell Type: Nonhuman, Evaluation Type: Evaluation A (Pre-1980)
# [6] = Species/Cell Type: Escherichia coli polA (W3119 vs P3478), Assay Type: Rec-assay, DNA effects (bacterial DNA repair), Assay Code: RE1T, Evaluation Type: Evaluation A (Pre-1980)
# [7] = Species/Cell Type: Saccharomyces cerevisiae, Assay Type: Mitotic recombination or gene conversion, Assay Code: YEH-, Evaluation Type: Evaluation A (Pre-1980)
# [8] = Species/Cell Type: Syrian hamster embryo (SA7/SHE) cells, Assay Type: Cell transformation, viral enhanced, Assay Code: CT7+, Evaluation Type: Evaluation A (Pre-1980)
# [9] = Species/Cell Type: Salmonella typhimurium (one or more of the five standard strains: TA98, TA100, TA1535, TA1537, and TA1538), Assay Type: Histidine reverse gene mutation, Ames assay, Assay Code: SALT, Evaluation Type: Evaluation A (Pre-1980)
smiles,measurement,setting,value
COP(=O)(Oc1cc(Cl)c(Br)cc1Cl)c1ccccc1 (centres undefined),mutagenic call,[1],active; positive
C=CCNC(=O)Nc1nc(-c2ccccc2)cs1,mutagenic call,"Species/Cell Type: Salmonella typhimurium, Assay Type: Forward and reverse gene mutation, host-mediated assay, Assay Code: HMAT, Evaluation Type: Evaluation A (Pre-1980)",no conclusion
COc1ccccc1N1CCN(c2ccc([N+](=O)[O-])c3no[n+]([O-])c23)CC1,mutagenic call,[2],active; positive
CC(=O)OCN(C)N=O,mutagenic call,[3],active; positive
N#Cc1cccc2ccccc12,mutagenic call,"Species/Cell Type: Allium cepa, Assay Type: Chromosome aberrations, Assay Code: ALC+D, Dose Response: With dose response, Evaluation Type: Evaluation A (Pre-1980)",active; positive
CC1(C)[C@@H](O[C@H]2O[C@H](C(=O)O)[C@@H](O)[C@H](O)[C@H]2O[C@@H]2O[C@H](C(=O)O)[C@@H](O)[C@H](O)[C@H]2O)CC[C@]2(C)[C@H]3C(=O)C=C4[C@@H]5C[C@@](C)(C(=O)O)CC[C@]5(C)CC[C@@]4(C)[C@]3(C)CC[C@@H]12,mutagenic call,[4],no conclusion
C1CN1c1nc(N2CC2)nc(N2CC2)n1,mutagenic call,"Species/Cell Type: Allium cepa, Assay Type: Chromosome aberrations, Assay Code: ALC+, Evaluation Type: Evaluation A (Pre-1980)",active; positive
same,mutagenic call,"Species/Cell Type: Arabidopsis species, Assay Type: Gene mutation, Assay Code: ARM-, Evaluation Type: Evaluation A (Pre-1980)",inactive; negative
same,mutagenic call,"Species/Cell Type: Drosophila melanogaster, Assay Type: Sex-linked recessive lethal gene mutation, Assay Code: SRL+, Evaluation Type: Evaluation A (Pre-1980)",active; positive
same,mutagenic call,"Species/Cell Type: Drosophila melanogaster, Sex: Male, Assay Type: Heritable translocation test, chromosome aberrations, Assay Code: DHT+, Evaluation Type: Evaluation A (Pre-1980)",active; positive
same,mutagenic call,"Species/Cell Type: F1 mouse, Sex: Male, Assay Type: Sperm morphology, Assay Code: SPF+, Evaluation Type: Evaluation A (Pre-1980)",active; positive
same,mutagenic call,"Species/Cell Type: Human lymphocytes, Assay Type: Sister-chromatid exchange (SCE) in vitro, Assay Code: SCL+, Evaluation Type: Evaluation B (Post-1980)",active; positive
same,mutagenic call,"Species/Cell Type: Human, Assay Type: Sister-chromatid exchange (SCE) in vitro, Assay Code: SC1+, Evaluation Type: Evaluation B (Post-1980)",active; positive
same,mutagenic call,"Species/Cell Type: Mammalian germ cells, Sex: Male, Assay Type: Chromosome aberrations in vivo, Assay Code: CY9+, Evaluation Type: Evaluation A (Pre-1980)",active; positive
same,mutagenic call,"Species/Cell Type: Mammalian oocytes or early embryo, Assay Type: Chromosome aberrations in vivo, Assay Code: CYO+, Evaluation Type: Evaluation A (Pre-1980)",active; positive
same,mutagenic call,"Species/Cell Type: Mammalian polychromatic erythrocytes, Assay Type: Micronucleus test, chromosome aberrations, Assay Code: MNT+, Evaluation Type: Evaluation A (Pre-1980)",active; positive
same,mutagenic call,"Species/Cell Type: Mouse germ cells, Sex: Male, Assay Type: Unscheduled DNA synthesis (UDS) in vivo, DNA effects, Assay Code: UDT+, Evaluation Type: Evaluation A (Pre-1980)",active; positive
same,mutagenic call,"Species/Cell Type: Mouse, Sex: Female, Assay Type: Spot test, gene mutation, Assay Code: MSTT, Evaluation Type: Evaluation A (Pre-1980)",no conclusion
same,mutagenic call,"Species/Cell Type: Mouse, Sex: Male, Assay Type: Heritable translocation test, chromosome aberrations, Assay Code: HTT+, Evaluation Type: Evaluation A (Pre-1980)",active; positive
same,mutagenic call,"Species/Cell Type: Mouse, Sex: Male, Assay Type: Specific locus test, gene mutation, Assay Code: SLT+, Evaluation Type: Evaluation A (Pre-1980)",active; positive
same,mutagenic call,"Species/Cell Type: Mouse, Sex: Male, Assay Type: Sperm morphology, Assay Code: SPI+, Evaluation Type: Evaluation A (Pre-1980)",active; positive
same,mutagenic call,"Species/Cell Type: Nonhuman bone marrow, Assay Type: Chromosome aberrations, in vivo, Assay Code: CY#+, Evaluation Type: Evaluation A (Pre-1980)",active; positive
same,call,[5],active; positive
same,mutagenic call,[1],active; positive
same,mutagenic call,"Species/Cell Type: Nonhuman, Assay Type: Sister-chromatid exchange (SCE) in vivo, Assay Code: SC3+D, Dose Response: With dose response, Evaluation Type: Evaluation B (Post-1980)",active; positive
same,mutagenic call,"Species/Cell Type: Rabbit, Sex: Male, Assay Type: Sperm morphology, Assay Code: SPRT, Evaluation Type: Evaluation A (Pre-1980)",no conclusion
same,mutagenic call,"Species/Cell Type: Rodents, Sex: Male, Assay Type: Dominant lethal test, Assay Code: DLT+D, Dose Response: With dose response, Evaluation Type: Evaluation A (Pre-1980)",active; positive
same,mutagenic call,"Species/Cell Type: Saccharomyces cerevisiae, Assay Type: Forward and reverse gene mutation, mitotic recombination and gene conversion, host-mediated assay, Assay Code: HME+, Evaluation Type: Evaluation A (Pre-1980)",active; positive
same,mutagenic call,"Species/Cell Type: Saccharomyces cerevisiae, Assay Type: Forward gene mutation, Assay Code: YEF+, Evaluation Type: Evaluation A (Pre-1980)",active; positive
same,mutagenic call,"Species/Cell Type: Saccharomyces cerevisiae, Assay Type: Mitotic recombination or gene conversion, Assay Code: YEC+, Evaluation Type: Evaluation A (Pre-1980)",active; positive
same,mutagenic call,"Species/Cell Type: Saccharomyces cerevisiae, Assay Type: Mitotic recombination or gene conversion, Assay Code: YEH+, Evaluation Type: Evaluation A (Pre-1980)",active; positive
same,mutagenic call,"Species/Cell Type: Saccharomyces cerevisiae, Assay Type: Reverse gene mutation, Assay Code: YER+, Evaluation Type: Evaluation A (Pre-1980)",active; positive
same,mutagenic call,"Species/Cell Type: Vicia faba, Assay Type: Chromosome aberrations, Assay Code: VIC+, Evaluation Type: Evaluation A (Pre-1980)",active; positive
CC(=O)Nc1ccc2c(c1)Cc1cc(O)ccc1-2,mutagenic call,"Species/Cell Type: Escherichia coli polA (W3110 vs P3478), Assay Type: Rec-assay, DNA effects (bacterial DNA repair), Assay Code: RE2+, Evaluation Type: Evaluation A (Pre-1980)",active; positive
same,mutagenic call,[6],no conclusion
same,mutagenic call,"Species/Cell Type: Human diploid fibroblasts, Assay Type: Unscheduled DNA synthesis (UDS) in vitro, DNA effects, Assay Code: UDH-, Evaluation Type: Evaluation A (Pre-1980)",inactive; negative
same,mutagenic call,"Species/Cell Type: Human, Assay Type: Sister-chromatid exchange (SCE) in vitro, Assay Code: SC1-, Evaluation Type: Evaluation B (Post-1980)",inactive; negative
same,mutagenic call,[7],inactive; negative
same,mutagenic call,"Species/Cell Type: Salmonella typhimurium (one or more of the five standard strains: TA98, TA100, TA1535, TA1537, and TA1538), Assay Type: Histidine reverse gene mutation, Ames assay, Assay Code: SAL+*, Activation: With metabolic activation, Evaluation Type: Evaluation A (Pre-1980)",active; positive
same,mutagenic call,"Species/Cell Type: Salmonella typhimurium, Assay Type: Forward and reverse gene mutation, host-mediated assay, Assay Code: HMA-, Evaluation Type: Evaluation A (Pre-1980)",inactive; negative
CCOC(=O)COc1ccc(Cl)cc1CSC(=N)N,mutagenic call,"Species/Cell Type: Saccharomyces cerevisiae, Assay Type: Reverse gene mutation, Assay Code: YERT, Evaluation Type: Evaluation A (Pre-1980)",no conclusion
CCCCBr,mutagenic call,[6],no conclusion
C=COC(C)=O,mutagenic call,"Species/Cell Type: Human lymphocytes, Assay Type: Sister-chromatid exchange (SCE) in vitro, Assay Code: SCL+D, Dose Response: With dose response, Evaluation Type: Evaluation B (Post-1980)",active; positive
same,mutagenic call,"Species/Cell Type: Human, Assay Type: Sister-chromatid exchange (SCE) in vitro, Assay Code: SC1+D, Dose Response: With dose response, Evaluation Type: Evaluation B (Post-1980)",active; positive
same,mutagenic call,"Species/Cell Type: Mammalian polychromatic erythrocytes, Assay Type: Micronucleus test, chromosome aberrations, Assay Code: MNT+, Evaluation Type: Evaluation B (Post-1980)",active; positive
same,call,[5],active; positive
same,mutagenic call,[1],active; positive
same,mutagenic call,"Species/Cell Type: Salmonella typhimurium (one or more of the five standard strains: TA98, TA100, TA1535, TA1537, and TA1538), Assay Type: Histidine reverse gene mutation, Ames assay, Assay Code: SAL-, Evaluation Type: Evaluation A (Pre-1980)",inactive; negative
same,mutagenic call,[8],active; positive
CC[N+](C)(CC)CCC[n+]1c(-c2ccccc2)c2cc(N)ccc2c2ccc(N)cc21,mutagenic call,"Species/Cell Type: Mammalian cell culture, nonhuman, Assay Type: Micronucleus test in vitro, chromosome aberrations, Assay Code: MN&+, Evaluation Type: Evaluation A (Pre-1980)",active; positive
[Cl][Zn][Cl],mutagenic call,"Species/Cell Type: Bacillus subtilis (H17 vs M45), Assay Type: Rec-assay, spot test, DNA effects (bacterial DNA repair), Assay Code: REW-, Evaluation Type: Evaluation A (Pre-1980)",inactive; negative
same,mutagenic call,"Species/Cell Type: Human lymphocytes or leukocytes, Assay Type: Chromosome aberrations in vitro, Assay Code: CY7-, Evaluation Type: Evaluation A (Pre-1980)",inactive; negative
same,mutagenic call,"Species/Cell Type: Mouse, Sex: Male, Assay Type: Sperm morphology, Assay Code: SPI-, Evaluation Type: Evaluation A (Pre-1980)",inactive; negative
same,mutagenic call,[2],active; positive
same,mutagenic call,[3],active; positive
same,mutagenic call,[8],active; positive
C(CCC1CO1)CC1CO1 (centres undefined),mutagenic call,"Species/Cell Type: Neurospora crassa, Assay Type: Forward gene mutation, Assay Code: NEF+, Evaluation Type: Evaluation A (Pre-1980)",active; positive
same,mutagenic call,[2],active; positive
NCCS,mutagenic call,[6],no conclusion
same,mutagenic call,"Species/Cell Type: Human lymphocytes, Assay Type: Sister-chromatid exchange (SCE) in vitro, Assay Code: SCLT, Evaluation Type: Evaluation B (Post-1980)",no conclusion
same,mutagenic call,[4],no conclusion
same,mutagenic call,"Species/Cell Type: Neurospora crassa, Assay Type: Reverse gene mutation, Assay Code: NER-, Evaluation Type: Evaluation A (Pre-1980)",inactive; negative
same,mutagenic call,[1],active; positive
same,mutagenic call,[9],no conclusion
O=[N+]([O-])O.[Cr],mutagenic call,[9],no conclusion
C=C(C)C(=O)/C(=C\C(=O)O)OC,mutagenic call,"Species/Cell Type: Bacillus subtilis (H17 vs M45), Assay Type: Rec-assay, spot test, DNA effects (bacterial DNA repair), Assay Code: REW+, Evaluation Type: Evaluation A (Pre-1980)",active; positive
same,call,[5],active; positive
same,mutagenic call,[7],inactive; negative
same,mutagenic call,[9],no conclusion
